Reference: patent US20250243194A1, “ANTAGONIST OF ADENOSINE RECEPTORS” (AdoRx Therapeutics Limited, priority 2022, published 2025)
Like-named read-outs stand apart in the source and are kept apart here.

Tests used:
[1] = target: human Adenosine A1 receptor (Homo sapiens (Human), UniProt P30542); experiment: Adenosine receptor TR-FRET binding assay (A1)
In short: (§1)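 Compounds incubated 2 h at room temperature with membranes from CHO cells expressing terbium-labelled human receptors, competing with the fluorescent antagonist CA200645 (30 nM for A2b; 100 nM for A1, A2a and A3). Read by TR-FRET (665/620 nm); non-specific binding defined with 10 μM XAC. Ki derived from IC50 via Cheng-Prusoff.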

[2] = target: human Adenosine A2a receptor (Homo sapiens (Human), UniProt P29274); experiment: Adenosine receptor TR-FRET binding assay (A2a)
Sequence of human Adenosine A2a receptor (P29274 whole entry): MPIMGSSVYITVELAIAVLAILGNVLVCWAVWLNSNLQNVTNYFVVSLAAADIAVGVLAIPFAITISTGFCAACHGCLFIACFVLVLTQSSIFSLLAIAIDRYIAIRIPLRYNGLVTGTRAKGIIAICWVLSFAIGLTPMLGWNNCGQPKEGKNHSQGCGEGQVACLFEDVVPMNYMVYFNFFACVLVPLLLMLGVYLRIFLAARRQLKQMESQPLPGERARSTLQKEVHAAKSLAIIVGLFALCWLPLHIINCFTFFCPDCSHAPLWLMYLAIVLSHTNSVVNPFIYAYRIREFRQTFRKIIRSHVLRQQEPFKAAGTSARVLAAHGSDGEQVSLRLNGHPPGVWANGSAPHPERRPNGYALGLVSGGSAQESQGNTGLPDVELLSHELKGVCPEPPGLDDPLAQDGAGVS
In short: as §1

[3] = target: human Adenosine A2b receptor (Homo sapiens (Human), UniProt P29275); experiment: Adenosine receptor TR-FRET binding assay (A2b); settings: inhibition of binding of 30 nM CA200645; CHO cell membranes; Ki from IC50 by Cheng and Prusoff
Sequence of human Adenosine A2b receptor (P29275 whole entry): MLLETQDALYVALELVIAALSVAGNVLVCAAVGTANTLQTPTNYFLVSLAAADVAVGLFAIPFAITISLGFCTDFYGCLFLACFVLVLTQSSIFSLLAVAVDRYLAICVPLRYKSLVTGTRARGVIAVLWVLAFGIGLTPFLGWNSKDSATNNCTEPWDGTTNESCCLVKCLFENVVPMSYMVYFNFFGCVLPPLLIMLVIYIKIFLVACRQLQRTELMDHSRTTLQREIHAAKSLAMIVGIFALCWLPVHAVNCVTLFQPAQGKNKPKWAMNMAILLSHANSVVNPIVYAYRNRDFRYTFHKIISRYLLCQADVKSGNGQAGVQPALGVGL
In short: as §1

human PBMCs = experiment: CD3/CD28 stimulated IL-2 release NECA reversal assay in human PBMCs; format: cell-based; settings: PBMC, reversal of 1 uM NECA, 24 hours
Protocol: Blood is drawn from healthy volunteers using sodium citrate as the anticoagulant (0.3% final concentration). After centrifugation of the blood over Histopaque-1077, PBMCs are collected from the Histopaque/plasma interface and washed twice in PBS (300 g for 10 mins at room temp). Cells are plated at 50,000 cells/well in 150 μl RPMI/10% FCS in 96-well cell culture plates that have been precoated with 1 μg/ml CD3 antibody. 50 μl diluted compound mix is added to the cells, to obtain final concentrations of 1 μg/ml CD28 antibody, 1 uM NECA and 0.003-10 μM adenosine receptor antagonist. Assay plates are incubated for 24 hours at 37° C. in a humidified incubator. Culture supernatant is tested for IL-2 levels using the human IL-2 Tissue Culture Kit (Meso Scale Discovery).

[4] = test system: CD8+ T cells in human whole blood; experiment: Measurement of pCREB in CD8+ T cells in human whole blood; format: cell-based; settings: T-cell, 3 μM NECA, rolipram, FACS
Protocol: Heparinised human whole blood was pre-incubated at 37° C. with serial dilutions of A2a antagonists for 20 min. and the phosphodiesterase inhibitor rolipram to amplify the pCREB response. The adenosine receptor agonist NECA is then added at a final concentration of 3 μM and following a 60 min incubation the blood is fixed and red blood cells lysed. White blood cells are isolated, permeabilized and stained with directly conjugated fluorescent antibodies to phospho-CREB (Alexa Fluor 488) and CD8 (Alexa Fluor 647) and the level of phospho-CREB in CD8+ T cells is measured by FACS using a BD Accuri C6 Flow Cytometer.

[5] = test system: immature monocyte-derived dendritic cells (MoDC); experiment: MoDC pCREB assay; format: cell-based; settings: Homo sapiens, Dendritic cell, CD209+/CD86-low cells, 1 μM NECA, 20 μM rolipram, largely specific to A2B
Protocol: Monocytes are isolated from human whole blood using CD14 microbeads (Miltenyi Biotec 130-050-201) and differentiated to immature monocyte-derived dendritic cells (MoDC) by culture for 5 days in Mo-DC Differentiation Medium (Miltenyi Biotec 130-094-812). MoDCs are seeded into fresh medium into U bottomed 96 well culture plates and pre-incubated at 37° C. with serial dilutions of A2A/B antagonists for 15 min. At the same time the cells are co-incubated with the phosphodiesterase inhibitor rolipram (final concentration of 20 μM) to amplify the subsequent pCREB response. Adenosine receptor agonist NECA is then added at 1 μM final concentration, leading to an increase in CREB phosphorylation. Following a 45 min incubation at 37° C., the cells are fixed, permeabilized and stained with directly conjugated fluorescent antibodies to phospho-CREB (Alexa Fluor 488), CD209 (PerCP-Cy5.5) and CD86 (APC). Samples are analysed by FACS to measure fluorescence in corresponding channels, and also forward and Side scatter. The population of CD209+/CD86-low cells corresponding to immature dendritic cells is gated for analysis of pCREB levels.
Approximately 5% of the analysed cells are positive for detection of pCREB in the absence of agonist stimulation, representing the background signalling of all pathways upstream of CREB. Following NECA stimulation this is increased to ˜80% pCREB+ve, and this increase is essentially fully reversible by A2B or dual A2A/B antagonists.
IC50 is represented as the point of inflection of a sigmoidal curve

[6] = inhibition of binding of 100 nM CA200645, CHO cell membranes, Ki from IC50 by Cheng and Prusoff

Sequence of human Adenosine A1 receptor (P30542 whole entry): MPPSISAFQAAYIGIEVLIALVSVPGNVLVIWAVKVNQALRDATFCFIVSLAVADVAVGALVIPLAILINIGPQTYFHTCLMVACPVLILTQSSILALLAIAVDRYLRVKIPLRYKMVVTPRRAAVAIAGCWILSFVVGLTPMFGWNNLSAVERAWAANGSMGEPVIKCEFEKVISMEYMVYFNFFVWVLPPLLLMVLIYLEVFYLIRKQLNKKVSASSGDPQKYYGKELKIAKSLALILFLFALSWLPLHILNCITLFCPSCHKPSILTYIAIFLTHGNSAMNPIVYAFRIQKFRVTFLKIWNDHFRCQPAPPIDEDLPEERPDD

Ki [1, 6] [nM] | Ki [2, 6] [nM] | Ki [3] [nM] | IC50 [4] [nM] | IC50 [5] [nM] | Ki [1] [nM] | Ki [2] [nM] | Compound | IC50 (human PBMCs) [nM]
10 | 0.13 | 1.1 | 30 | 3 | – | – | Cc1ncnc2ccc(-c3sc(NC(=O)N4CCC5(CCC(=O)N5)CC4)nc3-c3cccc(C#N)c3)cc12 [Example 7.23, N-[4-(3-Cyanophenyl)-5-(4-methylquinazolin-6-yl)thiazol-2-yl]-2-oxo-1,8-diazaspiro[4.5]decane-8-carboxamide] | 0.8
13 | 0.2 | 1.9 | 4 | 2 | – | – | Cc1ncnc2ccc(-c3sc(NC(=O)N4CCC5(CC4)CNC(=O)C5)nc3-c3cccc(C#N)c3)cc12 [Example 7.17, N-[4-(3-Cyanophenyl)-5-(4-methylquinazolin-6-yl)thiazol-2-yl]-3-oxo-2,8-diazaspiro[4.5]decane-8-carboxamide] | 1.1
– | – | 1.1 | 8 | 2 | 42 | 0.14 | Cc1ncnc2ccc(-c3sc(NC(=O)N4CC5(CNCCO5)C4)nc3-c3cccc(C#N)c3)cc12 [Example 4.1, N-[4-(3-Cyanophenyl)-5-(4-methylquinazolin-6-yl)thiazol-2-yl]-5-oxa-2,8-diazaspiro[3.5]nonane-2-carboxamide] | 1.8
